Like-named read-outs stand apart in the source and are kept apart here.
Key:
urease [1] = biological target: T1, urease (Canavalia ensiformis, UniProt P07374); format: biochemical, sword bean
urease [2] = biological target: T1, urease; format: biochemical, sword bean; remark: listed apart in the source
cytochrome C [3] = biological target: T2, cytochrome C (Equus caballus, UniProt P00004); experiment: Protein long-term stability (IR and UV spectrum), solid sample; set-up: species or system Horse
T2 construct: a reagent produced by NACALAI TESQUE, INC; (Horse Heart, molecular weight 12384) was used; purchased NACALAI TESQUE, INC; host or cells: horse heart (tissue origin)
T2 sequence (P00004 whole entry): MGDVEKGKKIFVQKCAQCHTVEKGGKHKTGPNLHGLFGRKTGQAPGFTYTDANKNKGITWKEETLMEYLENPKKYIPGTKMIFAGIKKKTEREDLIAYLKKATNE

urease [4] = biological target: T1, urease; format: biochemical, sword bean; remark: listed apart in the source
cytochrome C [5] = biological target: T2, cytochrome C; experiment: Protein long-term stability, 50% aqueous solution; set-up: species or system Horse
Procedure: At first, changes in amide absorption by IR spectrum were precisely observed, and there were confirmed the higher-order structures of protein (turn, α-helix, random coil, β-sheet). The amide I region (1,600 to 1,700 cm^−1) and the amide II region (1,500 to 1,600 cm^−1) were measured by ATR method using a Fourier transform infrared spectrophotometer (FT/IR-6100 by JASCO Corporation), and peaks were then detected based on a difference(s) between a cytochrome C-free organic ammonium salt sample (blank) and a cytochrome C-containing organic ammonium salt sample (sample).
Further, the activity state of cytochrome C (Fe^2+: reduced form, Fe^3+: oxidized form) was confirmed via absorptions in UV spectrum. The measurement was conducted using an ultraviolet-visible spectrophotometer and a quartz cell having an optical path width of 2 mm, immediately after diluting the cytochrome C-containing organic ammonium salt sample to 1% with a 50 mM phosphate buffer of pH 7.4 (prepared using 50 mM potassium dihydrogen phosphate and 50 mM dipotassium hydrogen phosphate).

[6] = cytochrome C, solid sample, 40° C., 80% RH, after 30 days, Stabilizer:Protein = 0.1:1
[7] = cytochrome C, solid sample, 40° C., 80% RH, after 30 days, Stabilizer:Protein = 1:1
[8] = cytochrome C, solid sample, 40° C., 80% RH, after 30 days, Stabilizer:Protein = 10:1
[9] = solid sample, 40° C., 80% RH, after 30 days, Stabilizer:Enzyme = 0.1:1
[10] = solid sample, 40° C., 80% RH, after 30 days, Stabilizer:Enzyme = 1:1
[11] = solid sample, 40° C., 80% RH, after 30 days, Stabilizer:Enzyme = 10:1
[12] = urease in 50 wt % aqueous solution of compound, 40° C., 80% RH, after 30 days, Stabilizer:Enzyme = 1:1
[13] = urease, solid sample mixed by mortar, 40° C., 80% RH, after 30 days, 1:1
[14] = urease, solid sample, solvent distilled away from dissolution solution, 40° C., 80% RH, after 30 days, 1:1
[15] = cytochrome C in 50 wt % aqueous solution of compound, 40° C., after 30 days, 1:1

T1 sequence (P07374 whole entry, looked up): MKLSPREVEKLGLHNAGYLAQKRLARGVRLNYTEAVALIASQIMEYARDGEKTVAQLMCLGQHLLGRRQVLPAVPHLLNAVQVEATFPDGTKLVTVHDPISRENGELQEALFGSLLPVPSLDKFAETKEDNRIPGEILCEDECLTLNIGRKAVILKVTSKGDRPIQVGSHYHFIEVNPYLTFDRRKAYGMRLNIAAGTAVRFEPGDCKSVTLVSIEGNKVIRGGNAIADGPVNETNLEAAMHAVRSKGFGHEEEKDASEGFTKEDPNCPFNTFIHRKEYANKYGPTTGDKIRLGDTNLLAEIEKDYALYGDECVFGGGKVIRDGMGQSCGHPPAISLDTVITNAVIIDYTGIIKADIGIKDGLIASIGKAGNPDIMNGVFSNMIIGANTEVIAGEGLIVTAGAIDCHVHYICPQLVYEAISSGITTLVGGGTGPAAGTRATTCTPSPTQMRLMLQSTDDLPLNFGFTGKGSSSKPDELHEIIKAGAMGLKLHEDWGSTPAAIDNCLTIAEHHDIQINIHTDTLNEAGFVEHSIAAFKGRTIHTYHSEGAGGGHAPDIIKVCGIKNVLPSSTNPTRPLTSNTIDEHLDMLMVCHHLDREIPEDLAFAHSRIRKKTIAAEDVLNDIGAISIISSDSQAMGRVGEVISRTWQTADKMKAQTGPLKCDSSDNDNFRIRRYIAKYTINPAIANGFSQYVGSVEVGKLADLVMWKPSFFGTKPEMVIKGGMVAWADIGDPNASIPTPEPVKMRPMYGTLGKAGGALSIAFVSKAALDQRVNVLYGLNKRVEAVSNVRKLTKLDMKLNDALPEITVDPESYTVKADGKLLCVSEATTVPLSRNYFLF

Compound | Enzyme activity retention rate(%) (after 30 days) Stabilizer: Enzyme = 0.1:1 (urease [1]) | Enzyme activity retention rate(%) (after 30 days) Stabilizer: Enzyme = 1:1 (urease [1]) | Enzyme activity retention rate(%) (after 30 days) Stabilizer: Enzyme = 10:1 (urease [1]) | Enzyme activity retention rate(%) (after 30 days) Stabilizer: Enzyme = 1:1 (urease [2]) | Protein long-term stability (after 30 days) Stabilizer: Protein = 0.1:1 (cytochrome C [3]; [6]) | Protein long-term stability (after 30 days) Stabilizer: Protein = 1:1 (cytochrome C [3]; [7]) | Protein long-term stability (after 30 days) Stabilizer: Protein = 10:1 (cytochrome C [3]; [8]) | Enzyme activity retention rate (%) (after 30 days) Stabilizer:Enzyme = 1:1, Mixed by mortar (urease [4]) | Enzyme activity retention rate (%) (after 30 days) Stabilizer:Enzyme = 1:1, Solvent distilled away from dissolution solution (urease [4]) | Protein long-term stability (after 30 days) Stabilizer: Protein = 0.1:1 (cytochrome C [3]) | Protein long-term stability (after 30 days) Stabilizer: Protein = 1:1 (cytochrome C [3]) | Protein long-term stability (after 30 days) Stabilizer: Protein = 10:1 (cytochrome C [3]) | Protein long-term stability (after 30 days) Stabilize:Protein = 1:1 (cytochrome C [5]) | Enzyme activity retention rate(%) (after 30 days) Stabilizer: Enzyme = 0.1:1 (urease [1]; [9]) | Enzyme activity retention rate(%) (after 30 days) Stabilizer: Enzyme = 1:1 (urease [1]; [10]) | Enzyme activity retention rate(%) (after 30 days) Stabilizer: Enzyme = 10:1 (urease [1]; [11]) | Enzyme activity retention rate(%) (after 30 days) Stabilizer: Enzyme = 1:1 (urease [2]; [12]) | Enzyme activity retention rate (%) (after 30 days) Stabilizer:Enzyme = 1:1, Mixed by mortar (urease [4]; [13]) | Enzyme activity retention rate (%) (after 30 days) Stabilizer:Enzyme = 1:1, Solvent distilled away from dissolution solution (urease [4]; [14]) | Protein long-term stability (after 30 days) Stabilize:Protein = 1:1 (cytochrome C [5]; [15])
CCCCn1cc[n+](C)c1.[Br-] [Comparative example 3, BMI-Br, reference compound] | 0% | 0% | 0% | 0% | × | × | × | 0% | 0% | – | – | – | – | – | – | – | – | – | – | –
O=C[C@H](O)[C@@H](O)[C@H](O)[C@H](O)CO [Comparative example 4, Glucose, reference compound] | 0% | 0% | 0% | 0% | × | × | × | 0% | 0% | – | – | – | – | – | – | – | – | – | – | –
Br.NC(CO)(CO)CO [Working example 78] | 3% | 4% | 18% | 3% | – | – | – | 0% | 24% | ◯ | ◯ | ◯ | ○ ○ ○ | – | – | – | – | – | – | –
CC(=O)[O-].C[N+](C)(C)CCO [Comparative example 2, Choline Acetate, reference compound] | – | – | – | – | – | – | – | – | – | × | × | × | – | 2% | 3% | 0% | 2% | 0% | 3% | –
CC(O)C(=O)O.CCCCN(CCCC)CCCC [Comparative example 1, Tributyl Ammonium Lactate, reference compound] | 0% | 0% | 0% | 0% | – | – | – | 0% | 0% | × | × | × | – | – | – | – | – | – | – | –
NC(CO)(CO)CO [Working example 3] | – | – | – | – | ◯ | ◯ | ◯ | – | – | – | – | – | – | 20% | 50% | 53% | 32% | 11% | 50% | ○ ○ ○
OCCNCCO [Working example 24] | – | – | – | – | ◯ | ◯ | ◯ | – | – | – | – | – | – | 9% | 25% | 25% | 10% | 5% | 25% | ○
NCC(O)C(O)C(O)C(O)CO (stereo not drawn) [Working example 29] | – | – | – | – | ◯ | ◯ | ◯ | – | – | – | – | – | – | 5% | 18% | 21% | 11% | 0% | 18% | ○
NC(CO)(CO)CO [Working example 83] | – | – | – | – | ◯ | ◯ | ◯ | – | – | – | – | – | – | 16% | 24% | 38% | 20% | 0% | 24% | ○ ○ ○
NC(CO)(CO)CO.O=C(O)c1ccccc1 [Working example 60] | – | – | – | – | – | – | – | – | – | ◯ | ◯ | ◯ | ○ ○ ○ | 7% | 20% | 29% | 21% | 0% | 20% | –

Source: patent US20240057587A1, “ORGANIC AMMONIUM SALT AND HYDROGEN-BONDING MATERIAL TREATMENT AGENT USING SAME” (MIYOSHI OIL & FAT CO.,LTD., priority 2019, published 2024)
